From US20260115189A1, “Combination Treatment Regimens - SMARCA2 Degrader With Taxane Anticancer Agent” (PRELUDE THERAPEUTICS INCORPORATED, priority 2023, published 2026)
Entries after “also recorded” stand apart in the source; their conditions may differ. Read-outs that look alike come from different tables or passages of the source.

Columns and labels:
[1] = tested on: NCI-H838 cells (SMARCA4-del NSCLC cell line); assay: Cell cycle analysis by flow cytometry (EdU / DRAQ5); format: cell-based, human; details: NCI-H838, single agent, 48 hrs
Procedure: Cells were seeded, incubated overnight, and dosed with drug treatments the next day. 2 hours before collection, cells were incubated with 10 μM EdU at 37 C then harvested using trypsin EDTA and washed with PBS/1% BSA. 4% PFA was added to the cells followed by a 15 minute incubation at RT. Cell were washed again with PBS/1% BSA and resuspended in 1X Click-iT® saponin-based permeabilization reagent for 15-minutes. Following centrifugation, supernatant was removed, and cells were incubated for 30 mins at RT, protected from light, in Click-iT® reaction cocktail, which was prepared according to manufacturer's instructions. Cells were then washed once with 0.01% Triton in PBS and resuspended in PBS. DRAQ5™ was added to cells at 1:200 dilution, incubated at room temperature, preventing exposure to light, for 30-60 min. Lastly, cells were washed with PBS/1% BSA and resuspended in 400 μl PBS/1% BSA. EdU with Pacific Blue™ azide and was detected using 405 nm excitation with a violet emission filter (450/50 nm) on a flow cytometer and analyzed using FlowJo software.
The combination effects of Formula (I) and docetaxel on the cell cycle was analyzed in a SMARCA4-deficient NSCLC lung cancer cell line by flow cytometry using DraQ5 and Click-iT EdU Pacific Blue. […]

[2] = tested on: SMARCA4-deficient NCI-H838 Lung Cancer Xenograft; details: for Tumor size: day 20, mean ± SEM; for Tumor size / TGI (tumor growth inhibition vs vehicle): combination of both regimens; for TGI (tumor growth inhibition vs vehicle): day 20
Procedure: (§1) As used herein, tumor growth inhibition is calculated as follows: Mean % Inhibition=(mean(C)−mean(T))/mean(C)*100%, wherein C is the tumor volume in the control arm, and T is the tumor volume in the treatment arm.
(§2) The NCI-H838-#5 tumor cells were maintained in vitro with RPMI1640 medium supplemented with 10% fetal bovine serum at 37° C. in an atmosphere of 5% CO2 in air. The cells in exponential growth phase were harvested and quantitated by cell counter before tumor inoculation. NOD-SCID female mice were inoculated subcutaneously in the right front flank region with NCI-H838-#5 tumor cells (5×10^6) in 0.1 ml of PBS mixed with Matrigel (1:1) for tumor development. The randomization was performed when the mean tumor size reaches approximately 100-150 mm^3.
(§3) Tumor volumes at the end of studies were evaluated by the Mann-Whitney test (unpaired, nonparametric test). * P<0.05 […], *** P<0.001 versus vehicle are shown in graphs.

[3] = tested on: SMARCA4-deficient A549 Lung Cancer Xenograft; details: for Tumor size: day 28, mean ± SEM
Procedure: as §1
as §2, with “A549” for “NCI-H838-#5”, “Ham's F12K” for “RPMI1640”, “BALB/c nude” for “NOD-SCID”, “PBS” for “PBS mixed with Matrigel (1:1)”
as §3

[4] = tested on: SMARCA4-WT Calu-6 Lung Cancer Xenograft; details: for Tumor size: day 21, mean ± SEM; for Tumor size / TGI (tumor growth inhibition vs vehicle): Formula (I) 100 mg/kg Q3D, docetaxel 5/10 mg/kg QW, combination 100 + 5/10 mg/kg Q3D + QW; for TGI (tumor growth inhibition vs vehicle): day 21
Procedure: as §1
as §2, with “Calu-6” for “NCI-H838-#5”, “MEM” for “RPMI1640”, “BALB/c nude” for “NOD-SCID”, “PBS” for “PBS mixed with Matrigel (1:1)”
as §3

[5] = molecular target: T1, SMARCA2 protein (Homo sapiens, UniProt P51531); assay: Semi-quantitative western blot of SMARCA2 in tumor tissue; format: in vivo, mouse xenograft; details: for tumor SMARCA2 protein levels: repeat administration, Formula (I) 100-200 mg/kg s.c. Q3D, over a 24 h period, docetaxel 5-20 mg/kg i.v. QW; for tumor SMARCA2 protein levels relative to vehicle treated mice: tumors collected 4 hr and 24 hr post final dosing, Formula (I) 100 mg/kg s.c. Q3D, docetaxel 10/5 mg/kg i.v. QW
T1 construct: from tissue; host or cells: Frozen xenograft tumor tissue from human lung cancer cells (NCI-H838, A549 or Calu-6) grown subcutaneously in mice
T1 sequence (P51531 whole entry): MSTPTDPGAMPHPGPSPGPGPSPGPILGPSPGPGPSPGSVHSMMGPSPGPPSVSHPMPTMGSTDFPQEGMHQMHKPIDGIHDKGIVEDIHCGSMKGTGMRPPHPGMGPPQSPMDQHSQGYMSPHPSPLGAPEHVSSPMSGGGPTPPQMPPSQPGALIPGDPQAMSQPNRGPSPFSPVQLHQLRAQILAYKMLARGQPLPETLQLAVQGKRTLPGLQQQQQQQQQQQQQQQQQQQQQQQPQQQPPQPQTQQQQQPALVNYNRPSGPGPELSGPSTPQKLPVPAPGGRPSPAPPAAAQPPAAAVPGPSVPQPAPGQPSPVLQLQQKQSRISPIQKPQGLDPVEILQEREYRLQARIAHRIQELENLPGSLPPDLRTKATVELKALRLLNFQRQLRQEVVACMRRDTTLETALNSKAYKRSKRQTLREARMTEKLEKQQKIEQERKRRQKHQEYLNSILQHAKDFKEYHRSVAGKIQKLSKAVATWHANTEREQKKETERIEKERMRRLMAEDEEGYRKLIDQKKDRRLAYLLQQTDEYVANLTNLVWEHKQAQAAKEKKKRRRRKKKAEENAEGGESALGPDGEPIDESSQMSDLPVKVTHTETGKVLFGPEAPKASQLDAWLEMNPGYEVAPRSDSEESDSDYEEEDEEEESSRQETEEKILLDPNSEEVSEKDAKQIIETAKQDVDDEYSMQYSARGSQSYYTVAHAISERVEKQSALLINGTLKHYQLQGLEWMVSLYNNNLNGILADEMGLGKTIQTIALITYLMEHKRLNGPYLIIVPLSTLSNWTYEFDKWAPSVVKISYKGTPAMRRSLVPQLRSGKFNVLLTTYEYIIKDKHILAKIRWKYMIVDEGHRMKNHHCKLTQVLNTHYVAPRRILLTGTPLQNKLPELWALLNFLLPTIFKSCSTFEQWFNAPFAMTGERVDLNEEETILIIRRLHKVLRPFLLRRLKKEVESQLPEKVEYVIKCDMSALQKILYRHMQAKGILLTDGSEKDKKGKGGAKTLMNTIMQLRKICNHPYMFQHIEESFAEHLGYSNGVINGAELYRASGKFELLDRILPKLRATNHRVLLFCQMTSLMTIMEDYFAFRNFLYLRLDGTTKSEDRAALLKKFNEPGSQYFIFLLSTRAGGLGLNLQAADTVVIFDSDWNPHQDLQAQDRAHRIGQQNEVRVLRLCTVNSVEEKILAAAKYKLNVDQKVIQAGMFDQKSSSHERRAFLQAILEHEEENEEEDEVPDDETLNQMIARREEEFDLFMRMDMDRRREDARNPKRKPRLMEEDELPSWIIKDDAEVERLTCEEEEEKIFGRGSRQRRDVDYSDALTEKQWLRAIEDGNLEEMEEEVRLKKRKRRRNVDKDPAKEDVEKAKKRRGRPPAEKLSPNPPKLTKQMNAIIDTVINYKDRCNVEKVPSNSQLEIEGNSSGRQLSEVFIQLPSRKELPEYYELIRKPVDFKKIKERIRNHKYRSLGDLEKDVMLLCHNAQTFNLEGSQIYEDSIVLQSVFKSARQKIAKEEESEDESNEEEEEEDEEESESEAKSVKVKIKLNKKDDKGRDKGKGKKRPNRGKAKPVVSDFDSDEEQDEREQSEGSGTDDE
Procedure: SMARCA2 protein expression was measured by semi-quantitative western blot following extraction of protein from frozen tumor tissue. Up to 50 mg of frozen tumor tissue was measured and placed into 0.5 mL conical tubes containing 0.5 mm ceramic beads and 400 μL RIPA buffer containing 1× protease and phosphatase inhibitors (ThermoFisher Scientific, A32959) and PMSF (Cell Signaling Technology, #8553). Tissues were homogenized with a Bead Ruptor Elite at a speed of 5 m/sec for 25 seconds and centrifuged at 12,000 rpm for 3 min at 4° C. Milling and centrifugation steps were performed two additional times before transferring supernatant to UltraFree 0.45 μm 0.5 mL filter columns (Millipore Sigma, #UFC30HV) and centrifuging at 12,000 rpm for 1 min. Flow through lysate was quantified by BCA assay, diluted with 1 volume of RIPA lysis buffer, and mixed with Laemmli sample buffer. Lysates were boiled at 95° C. for 5 min and 30 μg of protein was loaded in 4-20% Criterion TGX Precast Midi Protein Gels (BioRad, #5671095). Protein was transferred to PVDF membranes by Trans-Blot Turbo system (Bio-Rad) and probed with Actin (Signma, #A2228) and SMARCA2 (Cell Signaling Technology, #11966) primary antibodies at a 1:1000 dilution and IRDye 800CW or IRDye 680RD secondary antibodies (LICOR, antibody, #926-68070) in iBind automated western system (ThermoFisher Scientific). The stained blots were scanned by LiCOR Odyssey CLx imaging system to acquire integrated intensities at 700 nm and 800 nm channel and analyzed using Image Studio software v5.2.

[6] = tested on: SMARCA4-mutated NCI-H838 tumor tissues; assay: RNA-sequencing and Gene Set Enrichment Analysis of treated tumor tissues; format: in vivo; details: NCI-H838 tumor tissues treated for one week
Procedure: To elucidate the mechanism of action for the combination effects observed in vivo, RNA-sequencing was conducted on SMARCA4-mutated NCI-H838 tumor tissues treated with Formula (I) and/or docetaxel for one week.

[7] = tested on: SMARCA4-mutated cancer cell lines; assay: Cell cycle arrest in SMARCA4-mutated cancer cell lines; format: cell-based
[8] = tested on: SMARCA4 wild-type cell lines; assay: Cell cycle arrest in SMARCA4 wild-type cell lines; format: cell-based
[9] = Formula (I) 100 mg/kg s.c. Q3D, docetaxel 10/5 mg/kg i.v. QW
[10] = as printed in text: Formula (I) 200 mg/kg s.c. Q3D, docetaxel 5-20 mg/kg i.v. QW, combination Formula (I) 100 mg/kg s.c. Q3D + docetaxel 5-20 mg/kg i.v. QW
[11] = Formula (I) 100 mg/kg s.c. Q3D, docetaxel 5/10/20 mg/kg QW, combination 200 + 5/10/20 mg/kg Q3D + QW
[12] = day 28, Formula (I) 100 mg/kg s.c. Q3D, docetaxel 5/10/20 mg/kg QW, combination 200 + 5/10/20 mg/kg Q3D + QW

SMILES | cell cycle arrest [1] | Tumor size [2, 9] [mm^3] | TGI (tumor growth inhibition vs vehicle) [2, 9] | TGI (tumor growth inhibition vs vehicle) ([2]; Formula (I) 100 mg/kg s.c. Q3D, docetaxel 10/5 mg/kg i.v. QW, listed as docetaxel) [%] | TGI (tumor growth inhibition vs vehicle) [3, 10] [%] | Tumor size [3, 11] | TGI (tumor growth inhibition vs vehicle) [3, 12] | Tumor size [4] | TGI (tumor growth inhibition vs vehicle) [4] | tumor SMARCA2 protein levels [5] | tumor SMARCA2 protein levels relative to vehicle treated mice [5] | Gene Set Enrichment Analysis: E2F targets and G2/M pathways [6] | cell cycle arrest [7] | tolerability (morbidity, body weight) ([2]; Formula (I) 100 mg/kg s.c. Q3D, docetaxel 10/5 mg/kg i.v. QW, combination of both, one Formula (I) dosing holiday on day 12 in combination) | tolerability (morbidity, body weight) ([2]; single agents: Formula (I) 50 or 75 mg/kg i.v. QW, nab-paclitaxel 30 mg/kg i.v. Q3W) | tolerability (morbidity, body weight) ([3]; Formula (I) s.c. Q3D, docetaxel 5-20 mg/kg i.v. QW, combination) | tolerability (morbidity, body weight) ([4]; Formula (I) 100 mg/kg s.c. Q3D, docetaxel 5/10 mg/kg i.v. QW, combination) | growth of SMARCA4 WT Calu-6 lung tumor xenografts ([4]; Formula (I) at efficacious dosing regimens) | G1 cell cycle arrest [8]
CC(=O)O[C@@]12CO[C@@H]1C[C@H](O)[C@@]1(C)C(=O)[C@H](O)C3=C(C)[C@@H](OC(=O)[C@H](O)[C@@H](NC(=O)OC(C)(C)C)c4ccccc4)C[C@@](O)([C@@H](OC(=O)c4ccccc4)[C@H]21)C3(C)C [Docetaxel, reference compound] | dose dependent G2/M arrest signal | 971.86 ± 127.82 | 55.0% (day | 55 | 13 | 2,223 ± 300 mm^3 | 13.3% (day | 1,338 ± 132 mm^3 | 37.6% (day | no effect | no effect; also recorded: unaffected | positive enrichment of E2F targets and G2/M pathways | induced G2/M arrest |  |  |  |  |  | 
Cc1ncsc1-c1ccc([C@H](C)NC(=O)[C@@H]2C[C@@H](O)CN2C(=O)[C@@H](c2cc(O[C@@H](C)CN3CC[C@@H](N4CCN5c6cc(-c7ccccc7O)nnc6NC[C@H]5C4)C3)no2)C(C)C)cc1 [Formula (I)] | dose dependent G1 arrest signal | 590.46 ± 102.37 |  |  | 32 | 1,785 ± 221 mm^3 | 31.6% (day | 1,535 ± 174 mm^3 | 27.2% (day | complete reduction | significantly decreased; also recorded: abolished | downregulating E2F targets and G2/M pathways | induced G1 cell cycle arrest | well tolerated | well tolerated | well tolerated | well tolerated | did not inhibit the growth | not in SMARCA4 wild-type cell lines
